Experimental data: patent EP2815749A1, “Solid form of 4-amino-2-(2,6-dioxopiperidine-3-yl)isoindoline-1,3-dione having specified X-ray diffraction pattern” (IP Gesellschaft für Management mbH, priority 2013, dated 2014)
In brackets after ≈: the same amount, converted by molar mass. Like-named read-outs stand apart in the source and are kept apart here.

Columns and labels:
[1] = Solubility of pomalidomide in various solvents; type: physicochemical; conditions: ambient temperature
Procedure: Pomalidomide Polymorph Preparations: A weighed sample of pomalidomide (about 100 mg) was treated with 2 mL of a test solvent. The solvents used were either reagent or HPLC grade. The resulting mixture was agitated for at least 24 hours at 25°C. When all of the solids were dissolved by visual inspection, the estimated solubilities were calculated. The solubility was estimated from these experiments based on the total volume of solvent used to give a solution. The actual solubility may be greater than those calculated due to the use of a large amount of solvent or to a slow rate of dissolution. […] A known volume of filtrate was evaporated to dryness and the weight of the residue was measured. Equilibration and evaporation experiments were carried out by adding an excess of pomalidomide to 4 mL of a test solvent. The resulting mixture was agitated for at least 24 hours at 25°C and 50°C separately. Upon reaching equilibrium, the saturated solution was removed and allowed to evaporate slowly in an open vial under nitrogen at 25°C and 50°C respectively. The slurry resulting from the equilibration was filtered and dried in the air. Crystallizations using cooling methods were performed. The solid was dissolved in a solvent at an elevated temperature, approximately 80°C and allowed to cool to room temperature. […] Solids were isolated by decantation and allowed to dry in the air. Precipitation studies were carried out by solvent/anti-solvent combinations. The solid was dissolved in a solvent in which pomalidomide solubility was high, and then a selected solvent in which pomalidomide was highly insoluble (anti-solvent) was added to the solution. A precipitate formed immediately in some solvent/anti-solvent systems. […] The precipitate was then isolated by decantation and allowed to dry in the air. All of the samples generated as described in the polymorph preparation study were analyzed by XRPD. X PD was conducted on a Thermo ARL X'TRA X-ray powder diffractometer using Cu Kcc radiation at 1.54 A. The instrument was equipped with a fine focus X-ray tube. The voltage and amperage of X-ray generator were set at 45 kV and 40 mA, respectively. The divergence slices were set at 4 mm and 2 mm and the measuring slices were set at 0.5 mm and 0.2 mm. Diffracted radiation was detected by peitier-cooled Si(Li) solid state detector. A theta-two theta continuous scan at 2.40°/min (0.5 sec/0.02c step) from 1.5° 20 to 40° 2.0 was used. A sintered alumina standard was used to check the peak position. DSC analyses were performed on a TA instrument Q1000. Indium was used as calibration standards. Approximately 2-5 mg of sample was placed into a DSC pan and the weight was accurately recorded. The sample was heated under nitrogen at a rate of 10°C/min, up to a final temperature of 350°C. Melting points were reported as extrapolated onset temperature. TG analyses were performed on a TA instrument Q500. Calcium oxalate was used for performance check. Approximately 10-25 mg of sample was placed on a pan, accurately weighed and loaded into the TG furnace. The sample was heated under nitrogen at a rate of 10°C/min, up to a final temperature of 350°C. Morphology and particle size analysis of the samples were carried out on an Olympus microscope. The instrument was calibrated with USP standards. Hygroscopicity was determined on a Surface Measurement Systems DVS. Typically a sample size of 10-50 mg was loaded into the DVS instrument sample pan and the sample was analyzed on a DVS automated sorption analyzer at 25°C. The relative humidity was increased in 10% increments from 0% to 95% RH. The relative humidity was then decreased in a similar mariner to accomplish a full adsosption/desorption cycle. […]

[2] = Approximate solubility of pomalidomide at 50°C in 96 solvent compositions (LC); type: physicochemical; conditions: binary solvent composition (main solvent and co-solvent), 50 °C, organic solvent or mixture, thermodynamic from solid
Procedure: Pomalidomide Solid Form Preparations: Preparation of solid form of pomalidomide was conducted by equilibrating pomalidomide in 96 solvent compositions at 50°C and subjected to four conditions: slurry, evaporation, cooling, and precipitation. […] Solvents were then added, as binary gradients consisting of main solvent and co-solvent, to give a total of 150 µl, in each of the 96 vials (see Table 6 for the exact composition of each vial). […] For each of the evaporation, precipitation, and cooling experiments, approximately 8 mg of a solid sample of pomalidomide (e.g., Form A) was delivered to each position of the plate. Solvents were added to the master plate, as binary gradients consisting of main solvent and co-solvent, to give a total volume of 800 µT in each of the 96 vials (see Table 7 for the exact composition of each vial). The master plate, containing pomalidomide and solvents, was then equilibrated by stirring for 2 hours at 50°C. Upon completion of the equilibration cycle, the supernatant was aspirated into a four-tipped needle assembly and transferred to a sealed parallel filtration assembly. The mixtures were forced through the filtration assembly using positive pressure and the filtrates were collected in an array of glass vials. The filtered solutions were subsequently aspirated into the four-tipped assembly and aliquots were dispensed to an array of glass vials for subsequent LC analysis to determine approximate concentrations of pomalidomide in each solvent composition at the beginning of the experiments (Table 8). Both the four-tipped needle assembly and filtration assembly were maintained at the equilibration temperature of 50°C throughout the entire transfer process.
The results correspond to the solvent systems described in Table 7, equilibrated at 50°C for 2 hours. […] The approximate concentrations were determined by LC.

Compound Nc1cccc2c1C(=O)N(C1CCC(=O)NC1=O)C2=O (centres unmarked) [Pomalidomide, 4-amino-2-(2,6-dioxopiperidine-3-yl)isoindoline-1,3-dione] has a solubility ([1]; Methyl t-butyl ether) of 1.03 mg/mL, a solubility ([1]; acetone, 25 °C, organic solvent or mixture, thermodynamic from solid, Acetone, read-out: Solubility) of 1.99 mg/mL and a solubility ([1]; acetonitrile, 25 °C, organic solvent or mixture, thermodynamic from solid, Acetonitrile, read-out: Solubility) of 1.27 mg/mL. It also gave a solubility ([1]; ethanol/water (1:1), 25 °C, aqueous with cosolvent or surfactant or cyclodextrin, thermodynamic from solid, Ethanol/Water (1:1), read-out: Solubility) of 0.54 mg/mL, a solubility ([1]; methyl ethyl ketone, 25 °C, organic solvent or mixture, thermodynamic from solid, Methyl ethyl ketone, read-out: Solubility) of 1.26 mg/mL and a solubility ([1]; methyl t-butyl ether, 25 °C, organic solvent or mixture, thermodynamic from solid, Methyl t-butyl ether, read-out: Solubility) of under 1 mg/mL. It also gave a solubility ([1]; methylene chloride, 25 °C, organic solvent or mixture, thermodynamic from solid, Methylene chloride, read-out: Solubility) of 1.45 mg/mL, a solubility ([1]; tetrahydrofuran, 25 °C, organic solvent or mixture, thermodynamic from solid, Tetrahydrofuran, read-out: Solubility) of 5.26 mg/mL and a solubility at 2 h ([2]; solvent system A4 of Table 7, read-out: Approximate Measured Solubility) of 1.44 mg/mL (≈ 5.27 mM). The solubility at 2 h ([2]; solvent system A5 of Table 7, read-out: Approximate Measured Solubility) was 0.8 mg/mL (≈ 2.93 mM), the solubility at 2 h ([2]; solvent system A6 of Table 7, read-out: Approximate Measured Solubility) was 0.28 mg/mL (≈ 1.02 mM) and the solubility at 2 h ([2]; solvent system A7 of Table 7, read-out: Approximate Measured Solubility) was 6.98 mg/mL (≈ 25.5 mM). For the same compound, the solubility at 2 h ([2]; solvent system A8 of Table 7, read-out: Approximate Measured Solubility) was 7.94 mg/mL (≈ 29.1 mM), the solubility at 2 h ([2]; solvent system A9 of Table 7, read-out: Approximate Measured Solubility) was 4.41 mg/mL (≈ 16.1 mM) and the solubility at 2 h ([2]; solvent system B1 of Table 7, read-out: Approximate Measured Solubility) was 0.23 mg/mL (≈ 0.842 mM). The solubility at 2 h ([2]; solvent system B2 of Table 7, read-out: Approximate Measured Solubility) was 0.79 mg/mL (≈ 2.89 mM), the solubility at 2 h ([2]; solvent system B3 of Table 7, read-out: Approximate Measured Solubility) was 1.03 mg/mL (≈ 3.77 mM) and the solubility at 2 h ([2]; solvent system B4 of Table 7, read-out: Approximate Measured Solubility) was 0.22 mg/mL (≈ 0.805 mM). It also gave a solubility at 2 h ([2]; solvent system B5 of Table 7, read-out: Approximate Measured Solubility) of 0.36 mg/mL (≈ 1.32 mM), a solubility at 2 h ([2]; solvent system B6 of Table 7, read-out: Approximate Measured Solubility) of 0.15 mg/mL (≈ 0.549 mM) and a solubility at 2 h ([2]; solvent system B7 of Table 7, read-out: Approximate Measured Solubility) of 3.16 mg/mL (≈ 11.6 mM). The solubility at 2 h ([2]; solvent system B8 of Table 7, read-out: Approximate Measured Solubility) was 1.72 mg/mL (≈ 6.29 mM), the solubility at 2 h ([2]; solvent system B9 of Table 7, read-out: Approximate Measured Solubility) was 0.92 mg/mL (≈ 3.37 mM) and the solubility at 2 h ([2]; solvent system B10 of Table 7, read-out: Approximate Measured Solubility) was 0.48 mg/mL (≈ 1.76 mM). It also gave a solubility at 2 h ([2]; solvent system B11 of Table 7, read-out: Approximate Measured Solubility) of 0.18 mg/mL (≈ 0.659 mM), a solubility at 2 h ([2]; solvent system C1 of Table 7, read-out: Approximate Measured Solubility) of 0.62 mg/mL (≈ 2.27 mM) and a solubility at 2 h ([2]; solvent system C2 of Table 7, read-out: Approximate Measured Solubility) of 1.41 mg/mL (≈ 5.16 mM). For the same compound, the solubility at 2 h ([2]; solvent system C3 of Table 7, read-out: Approximate Measured Solubility) was 1.67 mg/mL (≈ 6.11 mM), the solubility at 2 h ([2]; solvent system C4 of Table 7, read-out: Approximate Measured Solubility) was 0.48 mg/mL (≈ 1.76 mM) and the solubility at 2 h ([2]; solvent system C5 of Table 7, read-out: Approximate Measured Solubility) was 0.47 mg/mL (≈ 1.72 mM). For the same compound, the solubility at 2 h ([2]; solvent system C6 of Table 7, read-out: Approximate Measured Solubility) was 0.26 mg/mL (≈ 0.952 mM), the solubility at 2 h ([2]; solvent system C7 of Table 7, read-out: Approximate Measured Solubility) was 3.71 mg/mL (≈ 13.6 mM) and the solubility at 2 h ([2]; solvent system C8 of Table 7, read-out: Approximate Measured Solubility) was 2.97 mg/mL (≈ 10.9 mM). It also gave a solubility at 2 h ([2]; solvent system C9 of Table 7, read-out: Approximate Measured Solubility) of 1.84 mg/mL (≈ 6.73 mM), a solubility at 2 h ([2]; solvent system C10 of Table 7, read-out: Approximate Measured Solubility) of 1.09 mg/mL (≈ 3.99 mM) and a solubility at 2 h ([2]; solvent system C11 of Table 7, read-out: Approximate Measured Solubility) of 0.49 mg/mL (≈ 1.79 mM). The solubility at 2 h ([2]; solvent system C12 of Table 7, read-out: Approximate Measured Solubility) was 0.34 mg/mL (≈ 1.24 mM), the solubility at 2 h ([2]; solvent system D1 of Table 7, read-out: Approximate Measured Solubility) was 1.53 mg/mL (≈ 5.6 mM) and the solubility at 2 h ([2]; solvent system D2 of Table 7, read-out: Approximate Measured Solubility) was 0.67 mg/mL (≈ 2.45 mM). It also gave a solubility at 2 h ([2]; solvent system D3 of Table 7, read-out: Approximate Measured Solubility) of 3.46 mg/mL (≈ 12.7 mM), a solubility at 2 h ([2]; solvent system D4 of Table 7, read-out: Approximate Measured Solubility) of 2.5 mg/mL (≈ 9.15 mM) and a solubility at 2 h ([2]; solvent system D5 of Table 7, read-out: Approximate Measured Solubility) of 1.94 mg/mL (≈ 7.1 mM). The solubility at 2 h ([2]; solvent system D6 of Table 7, read-out: Approximate Measured Solubility) was 0.49 mg/mL (≈ 1.79 mM), the solubility at 2 h ([2]; solvent system D7 of Table 7, read-out: Approximate Measured Solubility) was 3.7 mg/mL (≈ 13.5 mM) and the solubility at 2 h ([2]; solvent system D8 of Table 7, read-out: Approximate Measured Solubility) was 2.31 mg/mL (≈ 8.45 mM). The solubility at 2 h ([2]; solvent system D10 of Table 7, read-out: Approximate Measured Solubility) was 0.56 mg/mL (≈ 2.05 mM) and the solubility at 2 h ([2]; solvent system D11 of Table 7, read-out: Approximate Measured Solubility) was 1.16 mg/mL (≈ 4.25 mM).
